Assay results as given in patent US20150225454A1, “TETRABRANCHED PEPTIDES AND ANALOGUES AS A NEW CLASS OF ANTIMICROBIALS AND THEIR PREPARATION THEREOF” (priority 2012, published 2015).
Converted amounts (≈) assume the structure as drawn. “Also recorded” adds a separate entry of the source. Where two headings read alike, the source gives them in different places. Where a SMILES comes first, the peptide text is derived from it. Bridges are numbered along the chain shown (N, C = ends). Roman numbers before positions name the chains, in order.

Experiments:
[1] = tested on: C. albicans (ATCC 10231 and DF2672R); format: cell-based
Description: The time-kill kinetics was measured for two strains of C. albicans (ATCC 10231 and DF2672R). The cultures were grown overnight in SD broth and the cell concentration was adjusted to 10^5-10^6 CFU/ml with phosphate buffer. The peptide or antifungals were added to the individual cultures. […] The test solution was incubated at 37° C. with constant shaking. 100 μL of the suspension is withdrawn at predetermined time points, serially diluted (10^2 or 10^3 fold) and poured into the SDA plate. The plate was incubated for 48 h at 37° C. for colony counting. The data were expressed in terms of % cell viability relative to the positive control.

fungi = conditions: cited from earlier work
C. albicans = test: microbe, parasite or virus in culture; format: cell-based
Description: The yeast strains were cultivated and suspended in Sabouraud's Dextrose (SD) broth diluted at one sixth at a starting OD600=˜0.08 in a flat-bottomed microtitre plate. A serial dilution of peptide in the same broth was mixed with the inoculum to give a final peptide concentration of 0.4-22 μM. The antifungal activity was assessed by monitoring the OD600 in cycles of 30 minutes and an orbital shaking at 100 rpm using an Infinite M200 microplate reader (Tecan Group Ltd., Switzerland) for 24/48 h at 37° C. Cultures without peptides were used as positive controls and broth alone or with 22 μM peptide served as negative controls. The minimum concentration required for complete inhibition was assessed by both visible observations as well as by measuring the OD600 and taken as the MIC. Each experiment was repeated in triplicates.

rabbit red blood cells = format: cell-based
Description: Haemolytic activity of peptides and antifungal drugs were determined against rabbit red blood cells (Oren et al., 1997). Briefly, serial dilution of peptides/antifungals in PBS was mixed with rRBC (final concentration 4% v/v), incubated at 37° C. for 1 h and centrifuged at 3000 rpm for 10 minutes. The release of hemoglobin in the supernatant was monitored by measuring the hemoglobin absorbance at 576 nm. The readings from cell suspension in PBS (without any additives) or 1% Triton-X100 were used as 0% or 100% haemolysis.

[2] = cited from earlier work
[3] = temperature or pH; cited from earlier work
IOBA-NHC cells = format: cell-based, human; conditions: 24 h incubation; read-out: EC50 (concentration that reduces the viable cells by 50%)
Description: IOBA-NHC cells were cultured under standard conditions (humidified atmosphere of 5% CO2 at 37° C.) in DMEM/F12 supplemented with 1 μg/ml bovine pancreas insulin, 2 ng/ml mouse epidermal growth factor, 0.1 μg/ml cholera toxin, […] hydrocortisone, 10% fetal bovine serum (FBS), 50 UI/ml penicillin, and 50 UI/ml streptomycin. Cells from passages 50-80 were used in all experiments. Every day, normal culture development was observed by phase-contrast microscopy. Cells were removed by gentle trypsin incubation at confluence and counted. They were seeded into 96 well culture plates (Corning, Schiphol-Rijk, The Netherlands) for microtitration analysis of flow cytotoxicity assay (˜10,000 cells/well). Cultures were kept at 37° C. for 24 h. Subconfluent cells (culture surface covering nearly 70%) were then exposed to various peptide concentrations (0.22-225 μM). Cytotoxicity was measured periodically using MultiTox-Fluor Multiplex assay kit (Promega, Wis., USA) by measuring the AFC fluorescence (λex=485 and λem=520 nm).

[4] = Calcein release from fungal model membrane SUVs; conditions: peptide:lipid ratio 1:30 and 1:15
Description: For the preparation of PC/PE/PI or PS/Erg SUV, the lipids were dissolved in chloroform/methanol (2:1, v/v) in a glass tube. Ergosterol was dissolved in same solvent and added to lipid mixture to make final ergosterol content of 15 wt %. The Lipid-ergosterol mixture was dried using nitrogen gas to form lipid layer. The film was hydrated in a buffer containing 20 mM PBS (pH 7), vortexed and sonicated. Each cycle of sonication (5 sec, 40° C.) is followed by freezing in liquid nitrogen and thawing on a water bath kept at 37° C. The procedure was repeated 5-6 times until an optically clear dispersion appeared. The SUV was divided into two parts. To the first part 50 mM calcein was added and incubated for 1 h. The excess calcein was removed by injecting 100 μL of the calcein-loaded SUV's into a Ultrahydrogel™ 250 (7.8 mm×300 mm) column equilibrated with 20 mM PBS (pH 7.0) and eluted isochratically at a flow rate of 1 ml/min for 1.5 column volumes. The calcein-loaded liposomes were mixed with calcein-free liposome (1:1) to adjust final liposome concentration. Peptide concentration was added to obtain 1:30 or 1:15 peptide:liposome ratio. Changes in the fluorescence signal after addition of peptide or Triton X-100 was measured on a PTI spectrofluorometer, using an excitation wavelength of 480 nm and emission wavelength of 512 nm. The Percentage calcein released at each time point was calculated using the equation: […]
Similar protocol was followed for the preparation of PC/Cholesterol SUVs.

| Structure (SMILES) | Activity (fungi) | Solubility [3] | other results |
| --- | --- | --- | --- |
| C[C@@H]1C/C=C/C=C/C=C/C=C/[C@H](O[C@@H]2O[C@H](C)[C@@H](O)[C@H](N)[C@@H]2O)C[C@@H]2O[C@](O)(C[C@@H](O)C[C@H]3O[C@@H]3/C=C/C(=O)O1)C[C@H](O)[C@H]2C(=O)O [Natamycin, reference compound] | Broad spectrum |  | time required to achieve similar endpoints (4 log reduction) ([1]; ATCC strain, 16×MIC): 24 h; fungicidal action ([1]; C. albicans DF2672R, 2×MIC, 24 h exposure): no fungicidal action; MIC (C. albicans; Candida albicans, C. albicans DF2672R): 15 µM (≈ 9.99 µg/mL); HC50 (rabbit red blood cells; rabbit, 1 h): 139.6 ± 0.18 µM |
| CN(C/C=C/C#CC(C)(C)C)Cc1cccc2ccccc12 [Terbinafine] | Broad spectrum | 0.00074 mg/L (≈ 2.54e-06 mM) | logP [2]: 5.9 |
| CC(=O)N1CCN(c2ccc(OCC3COC(Cn4ccnc4)(c4ccc(Cl)cc4Cl)O3)cc2)CC1 (centres unmarked) [Ketaconazole] | Broad spectrum | 0.09 (25° C.) mg/L |  |
| CCC(C)n1ncn(-c2ccc(N3CCN(c4ccc(OCC5COC(Cn6cncn6)(c6ccc(Cl)cc6Cl)O5)cc4)CC3)cc2)c1=O (centres unmarked) [Itraconazole] |  | 0.00047 mg/L (≈ 6.66e-07 mM) |  |
| Nc1nc(=O)[nH]cc1F [Peptide 5-FC, 5-FC] | Not active against filamentous fungii | 1.05e+06 mg/L (≈ 8130 mM) | logP [2]: −1.1 |
| C[C@@H]1[C@H](O)[C@@H](C)/C=C/C=C/CC/C=C/C=C/C=C/C=C/C(O[C@H]2O[C@H](C)[C@@H](O)[C@H](N)[C@@H]2O)CC2O[C@](O)(CC(O)C(O)CCC(O)CC(O)CC(O)CC(=O)O[C@H]1C)CC(O)C2C(=O)O (some centres unmarked) [Nystatin] | Broad spectrum | 360 (24° C.) mg/L | logP [2]: 0.5 |
| C[C@@H]1[C@H](O)[C@@H](C)/C=C/C=C/C=C/C=C/C=C/C=C/C=C/[C@H](O[C@@H]2O[C@H](C)[C@@H](O)[C@H](N)[C@@H]2O)C[C@@H]2O[C@](O)(C[C@@H](O)C[C@@H](O)[C@H](O)CC[C@@H](O)C[C@@H](O)CC(=O)O[C@H]1C)C[C@H](O)[C@H]2C(=O)O [Amphotericin B, reference compound] | Broad spectrum; also recorded: Excellent agains Aspergilus & Candida |  | EC50 (IOBA-NHC cells): 134 ± 16 µM; time to maximal effect ([1]; C. albicans DF2672R, 16×MIC): less than 8 h; MIC for two C. albicans clinical isolates (C. albicans; two C. albicans clinical isolates): 1.4 µM; HC50 (rabbit red blood cells): 59.4 ± 7.8 µM |
| OC(Cn1cncn1)(Cn1cncn1)c1ccc(F)cc1F [Fluconazole] | Broad spectrum. Less effective against | 1 mg/L (≈ 0.00327 mM) |  |
| CC(C)[C@H](NC(=O)[C@H](CCCCN)NC(=O)[C@H](CCCNC(=N)N)NC(=O)CNC(=O)[C@@H](N)CCCNC(=N)N)C(=O)N[C@H](C(=O)N[C@@H](CCCNC(=N)N)C(=O)N[C@@H](CCCNC(=N)N)C(=O)NCCCC[C@H](NC(=O)[C@H](CCCNC(=N)N)NC(=O)[C@H](CCCNC(=N)N)NC(=O)[C@@H](NC(=O)[C@@H](NC(=O)[C@H](CCCCN)NC(=O)[C@H](CCCNC(=N)N)NC(=O)CNC(=O)[C@@H](N)CCCNC(=N)N)C(C)C)C(C)C)C(=O)N[C@@H](CCCCN)C(=O)O)C(C)C [Peptide B2088, reference compound] (I: H-RGRKVVRRKK-OH / II: H-RGRKVVRR; amide I:9-II:C; N-terminus and C-terminus assumed) |  |  | calcein release [4]: decreased calcein release; decrease in MIC compared to the monomer (C. albicans): ~14 × |
| CC[C@H](C)C[C@H](C)CCCCCCCCC(=O)N[C@H]1C[C@@H](O)[C@@H](NCCN)NC(=O)[C@@H]2[C@@H](O)CCN2C(=O)[C@H]([C@H](O)CCN)NC(=O)[C@H]([C@H](O)[C@@H](O)c2ccc(O)cc2)NC(=O)[C@@H]2C[C@@H](O)CN2C(=O)[C@H]([C@@H](C)O)NC1=O [Caspofungin] | Effective against Candida spp | 370 mg/L (≈ 0.338 mM) |  |
| CC(C)[C@H](N)C(=O)N[C@@H](CCCNC(=N)N)C(=O)NCC(=O)N[C@@H](CCCNC(=N)N)C(=O)N[C@H](C(=O)N[C@@H](CCCNC(=N)N)C(=O)N[C@@H](CCCCN)C(=O)N[C@@H](CCCNC(=N)N)C(=O)NCCCC[C@H](NC(=O)[C@H](CCCNC(=N)N)NC(=O)[C@H](CCCCN)NC(=O)[C@H](CCCNC(=N)N)NC(=O)[C@@H](NC(=O)[C@H](CCCNC(=N)N)NC(=O)CNC(=O)[C@H](CCCNC(=N)N)NC(=O)[C@@H](N)C(C)C)C(C)C)C(=O)NCCCC[C@H](NC(=O)[C@H](CCCCNC(=O)[C@H](CCCNC(=N)N)NC(=O)[C@H](CCCCN)NC(=O)[C@H](CCCNC(=N)N)NC(=O)[C@@H](NC(=O)[C@H](CCCNC(=N)N)NC(=O)CNC(=O)[C@H](CCCNC(=N)N)NC(=O)[C@@H](N)C(C)C)C(C)C)NC(=O)[C@H](CCCNC(=N)N)NC(=O)[C@H](CCCCN)NC(=O)[C@H](CCCNC(=N)N)NC(=O)[C@@H](NC(=O)[C@H](CCCNC(=N)N)NC(=O)CNC(=O)[C@H](CCCNC(=N)N)NC(=O)[C@@H](N)C(C)C)C(C)C)C(=O)N[C@@H](CCCCN)C(=O)O)C(C)C [Sc_B4010] (I: H-VRGRVRKRKKK-OH / II: H-VRGRVRKRK / III: H-VRGRVRKR / IV: H-VRGRVRKR; amide I:9-IV:C, I:10-II:C, II:9-III:C; N-terminus and C-terminus assumed) |  |  | calcein release [4]: decreased calcein release; calcein release ([4]; listed as scrambled peptide): about 41%; increase in MIC on scrambling the sequence of B4010 (C. albicans): 2-4 fold |
| Clc1ccc(COC(Cn2ccnc2)c2ccc(Cl)cc2Cl)c(Cl)c1 (centres unmarked) [Miconazole] | Broad spectrum |  |  |
